# What was measured:
# [1] = Function of sodium cholate as bile acid carrier of insulin and protease inhibitor agent
# diabetic dog = experiment: Glucose levels in a diabetic dog after administration of insulin (oral enterocoated capsule; intramuscular comparison); assay type: in vivo; conditions: 0.5 u/kg intramuscular injection
# blood glucose levels = conditions: insulin mixed with bile salts, through the rectum, dose of 48 μ/kg; cited from earlier work
Molecule,function as bile acid carrier of the insulin and protease inhibitor agent [1],Glucose (diabetic dog; 0 min) [mm],Glucose (diabetic dog; 10 min) [mm],Glucose (diabetic dog; 20 min) [mm],Glucose (diabetic dog; 30 min) [mm],Glucose (diabetic dog; 45 min) [mm],Glucose (diabetic dog; 60 min) [mm],Glucose (diabetic dog; 75 min) [mm],Glucose (diabetic dog; 90 min) [mm],Glucose (diabetic dog; 120 min) [mm],Glucose (diabetic dog; 150 min) [mm],Glucose (diabetic dog; 180 min) [mm],reduction of blood glucose levels (blood glucose levels)
C[C@H](CCC(=O)[O-])[C@H]1CC[C@H]2[C@@H]3[C@H](O)C[C@@H]4C[C@H](O)CC[C@]4(C)[C@H]3C[C@H](O)[C@]12C.[Na+] [sodium cholate],can simultaneously function both as the bile acid carrier of the insulin and the protease inhibitor agent,–,–,–,–,–,–,–,–,–,–,–,–
Insulin,–,28.7,23.3,21.5,19.9,15.6,12.9,10.9,8.5,6.5,6.4,6.5,approximately 50%
